For three compounds, TGI results are on record in PubChem BioAssay (NCI).

Each structure is given as a SMILES string.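 Briefly, cells in 96-well plates were exposed to five compound concentrations for 48 h, and endpoints were estimated by linear interpolation. TGI: total growth inhibition.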

Some test systems named below: BT-549 breast; NCI-H23 lung; LOX IMVI melanoma; SR leukemia; TK-10 renal; EKVX NSCLC; SK-OV-3 ovarian; NCI/ADR-RES ovarian; CAKI-1 renal; HS 578T breast; MDA-N; COLO 205 colon; NCI-H460 lung; SF-539 CNS; HOP-62 NSCLC; HOP-92 NSCLC; MDA-MB-435; SF-268 CNS; HCC-2998 colon; UO-31 renal.
Common to all, as to assay: NCI-60 cell line screen, 48 h

As for `COc1ccc2nc3n(c2c1)C(c1c(F)cccc1F)SC3` (stereo not given), the TGI in the assay with BT-549 breast is above 100 µM; with NCI-H23 lung, above 100 µM; in the assay with LOX IMVI melanoma, above 100 µM; in the assay on SR leukemia it was above 100 µM; in the assay on TK-10 renal it was above 100 µM; in the assay with EKVX NSCLC, 55 µM. Moreover, the TGI with SK-OV-3 ovarian was above 100 µM; in the assay on NCI/ADR-RES ovarian it was 59.2 µM; in the assay on CAKI-1 renal, above 100 µM; in the assay on HS 578T breast, 87.7 µM; in the assay with MDA-N it was above 100 µM; in the assay with COLO 205 colon, above 100 µM. Besides, the TGI in the assay on NCI-H460 lung, in the assay with SF-539 CNS, with HOP-62 NSCLC, in the assay with HOP-92 NSCLC, in the assay with MDA-MB-435 and in the assay on SF-268 CNS was above 100 µM each time. In addition, the TGI with HCC-2998 colon and with UO-31 renal was above 100 µM in each case.

For the compound `N#Cc1c(N)nc(SCc2ccccc2)c(C#N)c1-c1ccc(O)cc1`, the TGI was 24.7 µM with BT-549 breast; 33.2 µM with NCI-H23 lung; 43 µM with LOX IMVI melanoma; 34.7 µM with SR leukemia; above 64.7 µM with TK-10 renal; 26.3 µM with EKVX NSCLC. In addition, the TGI with SK-OV-3 ovarian is 31.4 µM; with NCI/ADR-RES ovarian, 45.7 µM; with CAKI-1 renal, 28.5 µM; with HS 578T breast it was above 100 µM; in the assay with MDA-N, 27.5 µM; in the assay on COLO 205 colon, 37.8 µM. Further, the TGI in the assay on NCI-H460 lung was above 65.8 µM; with SF-539 CNS it was 57.5 µM; in the assay on HOP-62 NSCLC, 32.6 µM; in the assay on HOP-92 NSCLC it was 22 µM; in the assay with MDA-MB-435, 25.7 µM; in the assay with SF-268 CNS, 66.9 µM. Further, the TGI with HCC-2998 colon was above 55.6 µM; in the assay with UO-31 renal, 3.9 µM.

For the compound `C=CCSC1=N/C(=C\c2ccc(OC)cc2)C(=O)N1CC=C`, the TGI in the assay on BT-549 breast was 74.4 µM; in the assay on NCI-H23 lung, above 100 µM; with LOX IMVI melanoma, above 100 µM; in the assay with SR leukemia, 43.7 µM; in the assay with TK-10 renal, above 100 µM; in the assay on EKVX NSCLC, 59.2 µM. Further, the TGI in the assay with SK-OV-3 ovarian was above 100 µM; with NCI/ADR-RES ovarian, above 100 µM; in the assay with CAKI-1 renal it was above 100 µM; in the assay on HS 578T breast, above 100 µM; in the assay on MDA-N it was 59.8 µM; in the assay with COLO 205 colon it was 40.2 µM. Moreover, the TGI with NCI-H460 lung, with SF-539 CNS, in the assay with HOP-62 NSCLC, in the assay on HOP-92 NSCLC, in the assay on MDA-MB-435 and in the assay with SF-268 CNS was above 100 µM throughout. Also, the TGI with HCC-2998 colon was 79.7 µM; in the assay with UO-31 renal it was above 100 µM.
